According to PMC9646721, “Alkaloid binding to opium poppy major latex proteins triggers structural modification and functional aggregation” (Nature Communications, 2022):
In brackets after ≈: the same amount, converted by molar mass. Several values for one entry are separate records, joined by “and”; a condition that tells them apart may be missing. Equal values may be shown once.

Assays:
MLP2 = assay: ANS displacement assay; type: binding, Papaver somniferum; details: for IC50 / Log10IC50: 10 µM protein and 10 µM ANS, CBS pH 5.5; for Kd: from average IC50 and PR10-ANS Kd, competitive inhibition assumed, read-out: Estimated Kd
Excerpt: (§1) Eluates were store separately on ice.
(§2) Displacement of ANS is associated with reduced fluorescence.

PR10-12 [1] = assay: ANS displacement assay; type: binding, Papaver somniferum; details: for IC50 / Log10IC50: 10 µM protein and 10 µM ANS, CBS pH 5.5; for Kd: from average IC50 and PR10-ANS Kd, competitive inhibition assumed, read-out: Estimated Kd
Excerpt: as §1, §2

MLP15 [2] = molecular target: T1, MLP15 (Papaver somniferum, UniProt P19825); assay: ANS displacement assay; details: for IC50: IC50, MLP15; for IC50 / Log10IC50: 10 µM protein and 10 µM ANS, CBS pH 5.5; for Log10IC50 / Hill Slope: MLP15; for Hill Slope: ANS displacement dose-response fit
T1 sequence (P19825 1-159): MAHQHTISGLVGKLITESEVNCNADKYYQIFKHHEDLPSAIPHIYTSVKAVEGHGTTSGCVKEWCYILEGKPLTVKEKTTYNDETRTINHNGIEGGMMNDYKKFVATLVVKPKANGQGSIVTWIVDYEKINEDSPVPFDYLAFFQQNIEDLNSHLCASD
Protocol: (§5) 8-anilino-1-naphthalenesulfonic acid (ANS) fluorescence binding curves and the binding-induced reduction in ANS fluorescence resulting from competition with tested ligands across a range of concentration facilitated the measurement of IC50 and an estimate of Kd values using the binding models and procedures described previously[70]. […] ANS was dissolved in dimethylsufoxide at a concentration of 20 mM, stored at −20 °C until dilution and protected from exposure to light. […] 40 µl of the ANS solution and 40 µl of each MLP/PR10 protein solution were combined to 80 µl final reaction volumes, which were incubated at 21 °C for 10 min to allow equilibration of binding. Triplicate 18-µl aliquots were withdrawn from each 80 µl reaction, transferred to optically clear PCR tubes (Diamed, Canada) and ANS fluorescence was measured following an additional 3-min incubation at 30 °C using a Qiagen Rotor-gene Q 6-plex with excitation and emission filters of 365 ± 20 nm and 460 ± 20 nm, respectively. An identical reaction series whereby protein was omitted from the mixtures was measured under identical conditions and trace fluorescence was subtracted from each MLP/PR10 protein-containing sample. Each data set was scaled so that the maximum observed fluorescence corresponded to 100% and individual data points were plotted, and a rectangular hyperbolic ligand binding function was fit, using least-squares analysis (Prism 5 software, Graphpad, USA). Experiments were repeated at least twice with independently prepared protein.
(§6) Displacement of ANS is associated with reduced fluorescence. […] Briefly, 40 µl of 20 µM ANS and individual MLP/ PR10 protein solutions were combined in CBS buffer, pH 5.5, incubated at 21 °C for 5 min, mixed with 40 µl of separate 0 to 6 mM BIA solutions in CBS buffer, pH 5.5, and the 80 µl reactions were subsequently incubated for 10 min at 21 °C. Fluorescence was measured as described above, including subtraction of any fluorescence in a blank series whereby protein was omitted. […] Each experiment was repeated at least twice with independently prepared MLP/PR10 proteins and BIA ligand.

NISO [3] = molecular target: T2, NISO (Papaver somniferum, UniProt P0DYP9); assay: ANS displacement assay; details: for IC50: IC50, NISO; for IC50 / Log10IC50: 10 µM protein and 10 µM ANS, CBS pH 5.5; for Log10IC50 / Hill Slope: NISO; for Hill Slope: ANS displacement dose-response fit
T2 sequence (P0DYP9 entry or part of it): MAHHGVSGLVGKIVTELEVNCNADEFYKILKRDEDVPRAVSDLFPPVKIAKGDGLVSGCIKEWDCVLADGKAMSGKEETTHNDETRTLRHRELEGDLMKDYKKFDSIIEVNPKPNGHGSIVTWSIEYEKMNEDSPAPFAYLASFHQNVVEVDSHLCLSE
Protocol: as §5, §6

PR10-12 [4] = assay: Isothermal titration calorimetry; type: binding, Papaver somniferum; details: ITC, PBS pH 7.4, 25 °C, single-site model
Protocol: (§3) ITC experiments were conducted using a Microcal VP instrument (Malvern Pananalytical, Malvern, UK). Recombinant MLP/PR10 protein preparation involving production in Escherichia coli followed by cobalt-affinity chromatography was optimized to yield relatively high purity in a single step as determined by SDS-PAGE and colloidal Coomassie blue silver staining. The less than 48 h decrease in atmospheric oxygen exposure generated high-quality proteins with reduced precipitate. […] Eluates were twice dialysed to equilibrium (i.e., 10–12 h at 4 °C) against a 1000-fold (2–4 L) volume of PBS, pH 7.4 (25 mM sodium phosphate, 50 mM NaCl) or CBS, pH 5.5, resulting in a theoretical million-fold dilution of undesired small molecules (e.g., <0.2 µM imidazole). Dialysis was carried out in boiled Spectra/Por 1 6–8 kDa MWCO 0.32 ml/cm (Spectrum Labs, USA) tubing thoroughly washed with either buffer before use. The second 1000-fold volume of dialysis buffer was filtered and degassed using a reusable bottle-top filtration apparatus (Nalgene, USA) with disposable […] cellulose filters (VWR, Canada) prior to storage at 4 °C. Ligands were dissolved in the filtered dialysis buffer at 21 °C for approximately one hour, and any insoluble material was removed by repeated centrifugation at 21,000 × g for 10 min. No change in pH occurred following substrate addition. Prior to ITC, which was initiated immediately following dialysis, the protein solutions were centrifuged at 17,000 × g and 4 °C for 30 min. Any precipitate was separated from the remaining soluble protein fraction which was quantified by absorption at A280nm and diluted with filtered dialysis buffer immediately before use.
(§4) Thermograms were recorded at 25 °C, with a reference power of 10 (dpu/sec) and monitoring of 30 injections of 9 µl BIA ligand solutions into a sample cell containing 1.4 ml of an MLP/PR10 protein solution, with 300 seconds between injections. Protein concentrations varied from 10 to 150 µM to achieve an optimal C value and curve shape valid for parameter calculation. […] To ensure that we report only the heat of reaction for each interaction, independent titrations of ligand into buffer, and buffer into protein solutions, were used to calculate and then subtract heats of dilution. After subtraction, binding isotherms were analyzed in MicroCal Origin 7 (MicroCal, USA) by fitting a single-site binding model using non-linear least squares regression analysis repeated until convergence. […] Each ITC experiment was repeated 2 to 4 times.

NISO [5] = molecular target: T2, NISO; assay: Isothermal titration calorimetry; type: binding; set-up: made in house; host or cells: E. coli ArcticExpress (DE3); details: ITC, PBS pH 7.4, 25 °C; for N / Kd: single-site model
Protocol: as §3, with “UK).” for “UK). Recombinant MLP/PR10 protein preparation involving production in Escherichia coli followed by cobalt-affinity chromatography was optimized to yield relatively high purity in a single step as determined by SDS-PAGE and colloidal Coomassie blue silver staining. The less than 48 h decrease in atmospheric oxygen exposure generated high-quality proteins with reduced precipitate.”, “No change in pH occurred following substrate addition.” left out
as §4, with “injections.” for “injections. Protein concentrations varied from 10 to 150 µM to achieve an optimal C value and curve shape valid for parameter calculation.”

THS2 [6] = molecular target: T3, THS2 (Papaver somniferum, UniProt A0A2U9GGW3); assay: Isothermal titration calorimetry; type: binding; set-up: made in house; host or cells: E. coli ArcticExpress (DE3); details: ITC, PBS pH 7.4, 25 °C; for N / Kd: single-site model
T3 sequence (A0A2U9GGW3 whole entry): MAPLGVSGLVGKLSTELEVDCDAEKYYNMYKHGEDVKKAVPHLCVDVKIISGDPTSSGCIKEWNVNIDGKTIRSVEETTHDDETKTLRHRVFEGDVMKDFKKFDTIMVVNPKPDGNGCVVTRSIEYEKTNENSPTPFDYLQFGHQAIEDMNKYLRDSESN
Protocol: as §3, with “UK).” for “UK). Recombinant MLP/PR10 protein preparation involving production in Escherichia coli followed by cobalt-affinity chromatography was optimized to yield relatively high purity in a single step as determined by SDS-PAGE and colloidal Coomassie blue silver staining. The less than 48 h decrease in atmospheric oxygen exposure generated high-quality proteins with reduced precipitate.”, “No change in pH occurred following substrate addition.” left out
as §4, with “injections.” for “injections. Protein concentrations varied from 10 to 150 µM to achieve an optimal C value and curve shape valid for parameter calculation.”

PR10-10 [7] = molecular target: T4, PR10-10 (Papaver somniferum, UniProt A0A9Y2YA81); assay: ANS displacement assay; type: binding; details: ANS displacement dose-response fit
T4 sequence (A0A9Y2YA81 1-158): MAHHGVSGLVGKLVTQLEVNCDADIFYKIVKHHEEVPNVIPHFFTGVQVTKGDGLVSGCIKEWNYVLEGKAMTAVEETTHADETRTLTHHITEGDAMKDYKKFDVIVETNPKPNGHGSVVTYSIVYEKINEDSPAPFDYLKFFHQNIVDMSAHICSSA
Excerpt: as §1, §2

PR10-4 = assay: ANS displacement assay; type: binding, Papaver somniferum; details: for IC50 / Log10IC50: 10 µM protein and 10 µM ANS, CBS pH 5.5; for Kd: from average IC50 and PR10-ANS Kd, competitive inhibition assumed, read-out: Estimated Kd
Excerpt: as §1, §2

THS2 [8] = molecular target: T3, THS2; assay: ANS displacement assay
Protocol: as §5, §6

[9] = Ligand solubility threshold in ITC buffer; type: physicochemical; details: filtered dialysis buffer (CBS, 21 °C, aqueous buffer, thermodynamic from solid); pH 5.5, ITC buffer
Protocol: ITC experiments were conducted using a Microcal VP instrument (Malvern Pananalytical, Malvern, UK). Recombinant MLP/PR10 protein preparation involving production in Escherichia coli followed by cobalt-affinity chromatography was optimized to yield relatively high purity in a single step as determined by SDS-PAGE and colloidal Coomassie blue silver staining. The less than 48 h decrease in atmospheric oxygen exposure generated high-quality proteins with reduced precipitate. […] Eluates were twice dialysed to equilibrium (i.e., 10–12 h at 4 °C) against a 1000-fold (2–4 L) volume of PBS, pH 7.4 (25 mM sodium phosphate, 50 mM NaCl) or CBS, pH 5.5, resulting in a theoretical million-fold dilution of undesired small molecules (e.g., <0.2 µM imidazole). […] Any precipitate was separated from the remaining soluble protein fraction which was quantified by absorption at A280nm and diluted with filtered dialysis buffer immediately before use.
Thermograms were recorded at 25 °C, with a reference power of 10 (dpu/sec) and monitoring of 30 injections of 9 µl BIA ligand solutions into a sample cell containing 1.4 ml of an MLP/PR10 protein solution, with 300 seconds between injections. […] After subtraction, binding isotherms were analyzed in MicroCal Origin 7 (MicroCal, USA) by fitting a single-site binding model using non-linear least squares regression analysis repeated until convergence. […]

MLP15 [10] = molecular target: T1, MLP15; assay: Isothermal titration calorimetry; type: binding; set-up: made in house; host or cells: E. coli ArcticExpress (DE3); details: ITC thermogram, injections into buffer and MLP15
Protocol: ITC experiments were conducted using a Microcal VP instrument (Malvern Pananalytical, Malvern, UK). […] Dialysis was carried out in boiled Spectra/Por 1 6–8 kDa MWCO 0.32 ml/cm (Spectrum Labs, USA) tubing thoroughly washed with either buffer before use. The second 1000-fold volume of dialysis buffer was filtered and degassed using a reusable bottle-top filtration apparatus (Nalgene, USA) with disposable […] cellulose filters (VWR, Canada) prior to storage at 4 °C. Ligands were dissolved in the filtered dialysis buffer at 21 °C for approximately one hour, and any insoluble material was removed by repeated centrifugation at 21,000 × g for 10 min. […] Prior to ITC, which was initiated immediately following dialysis, the protein solutions were centrifuged at 17,000 × g and 4 °C for 30 min. Any precipitate was separated from the remaining soluble protein fraction which was quantified by absorption at A280nm and diluted with filtered dialysis buffer immediately before use.
as §4, with “injections.” for “injections. Protein concentrations varied from 10 to 150 µM to achieve an optimal C value and curve shape valid for parameter calculation.”

PR10-10 [11] = molecular target: T4, PR10-10; assay: Isothermal titration calorimetry; type: binding; details: ITC, CBS pH 5.5, printed in brackets beside *, read-out: Kd (estimate, low enthalpy system)
Protocol: as §3, with “UK).” for “UK). Recombinant MLP/PR10 protein preparation involving production in Escherichia coli followed by cobalt-affinity chromatography was optimized to yield relatively high purity in a single step as determined by SDS-PAGE and colloidal Coomassie blue silver staining. The less than 48 h decrease in atmospheric oxygen exposure generated high-quality proteins with reduced precipitate.”, “No change in pH occurred following substrate addition.” left out
as §4, with “injections.” for “injections. Protein concentrations varied from 10 to 150 µM to achieve an optimal C value and curve shape valid for parameter calculation.”

SMILES | IC50 (MLP2) [µM] | Log10IC50 (MLP2) | Kd (MLP2) [µM] | IC50 (PR10-12 [1]) [µM] | Log10IC50 (PR10-12 [1]) | Kd (PR10-12 [1]) [µM] | Kd (MLP15 [2]) [µM] | IC50 (MLP15 [2]) | Log10IC50 (MLP15 [2]) | Hill Slope (MLP15 [2]) | Kd (NISO [3]) [µM] | IC50 (NISO [3]) | Log10IC50 (NISO [3]) | Hill Slope (NISO [3]) | Kd (PR10-12 [4]) [µM] | ΔH (NISO [5]) [kcal/mol] | ΔS (NISO [5]) [cal/mol/˚K] | N (NISO [5]) | Kd (NISO [5]) | ΔH (THS2 [6]) [kcal/mol] | further results
COc1ccc2c3c1O[C@H]1[C@@H](O)C=C[C@H]4[C@@H](C2)N(C)CC[C@@]341 [Codeine, codeine] | 203 | 2.31 ± 0.14 | 151 | 1500 | 3.18 ± 0.36 | 1460 | 931 | 1050 µM | 3.02 ± 0.17 | -0.97 ± 0.13 | 24.2 | 28 µM and 28.2 µM | 1.45 ± 0.13 | -0.72 ± 0.13 | 140 ± 13.6 | -3.556 ± 0.02607 | 13.9 | 1.07 ± 0.00547 | 2 µM and 2.22 µM | 1.868 ± 0.0686 | Kd (PR10-12 [4]; listed as codeine): 140 µM; ΔS (THS2 [6]): 27.2 cal/mol/˚K; N (THS2 [6]): 0.51 ± 0.0145; Kd (THS2 [6]): 26 µM and 26.5 µM; Hill Slope (PR10-10 [7]): ~ 0.13 ± 0.35
COc1ccc2c(c1OC)C(=O)O[C@@H]2[C@H]1c2c(cc3c(c2OC)OCO3)CCN1C [Noscapine, noscapine] | ~40.4 | ~ 1.61 ± 0.07 | ~29.9 | ~4.18 | ~ 0.62 ± 0.17 | ~4.07 | 37.8 | 43 µM and 42.6 µM | 1.63 ± 0.04 | -1.18 ± 0.10 | 56.7 | 66 µM and 66.1 µM | 1.82 ± 0.07 | -5.05 ± 6.55 |  |  |  |  |  |  | IC50 (PR10-4): ~126 µM; Log10IC50 (PR10-4): ~ 2.102 ± 0.59; Kd (PR10-4): ~116 µM; Kd (THS2 [8]): ~9.66 µM; IC50 (THS2 [8]; IC50, THS2, 10 µM protein and 10 µM ANS, CBS pH 5.5): 14 µM and ~14.3 µM; Log10IC50 (THS2 [8]; THS2, 10 µM protein and 10 µM ANS, CBS pH 5.5): ~ 1.16 ± 0.48; Hill Slope (THS2 [8]; THS2, ANS displacement dose-response fit): ~ -1.13 ± 0.78; solubility [9]: 1100 µM (≈ 455 µg/mL); endothermic positive peaks during the initial injections (MLP15 [10]): > 0.2 µcal/s; exothermic heat-change plateau of the final injections (MLP15 [10]): -0.48 µcal/s
COc1cc2c(cc1OC)[C@@H]1Cc3ccc(OC)c(OC)c3CN1CC2 [Tetrahydropalmatine] |  |  |  |  |  |  |  |  |  |  |  |  |  |  |  |  |  |  |  |  | Kd (PR10-10 [11]): 180 ± 133 µM
COC1=CC=C2[C@H]3Cc4ccc(OC)c5c4[C@@]2(CCN3C)[C@H]1O5 [Thebaine, thebaine] | 394 | 2.60 ± 0.20 | 292 | 445 | 2.65 ± 0.21 | 432 | 612 | 690 µM | 2.84 ± 0.23 | -1.05 ± 0.19 | 171 | 199 µM and 200 µM | 2.30 ± 0.14 | 0.92 ± 0.16 | 21.6 ± 0.71 | -2.396 ± 0.1109 | 13.6 | 0.786 ± 0.0251 | 18 µM and 18.2 µM | 2.45 ± 0.09784 | IC50 (PR10-4): 2570 µM; Log10IC50 (PR10-4): 3.41 ± 1.42; Kd (PR10-4): 2350 µM; Kd (PR10-12 [4]; listed as thebaine): 22 µM; ΔS (THS2 [6]): 28.8 cal/mol/˚K; N (THS2 [6]): 0.523 ± 0.0156; Kd (THS2 [6]): 31 µM and 31.2 µM
